Biological target: TEAD2 (Homo sapiens (Human), UniProt Q15562)
Experiment: In vitro palmitoylation (TEAD2 autopalmitoylation, streptavidin blot)
Type: biochemical
Settings: compound at 10 μM
Method: Recombinant GST-TEAD2 or His6TEAD2 (500 ng) protein was pre-incubated with the compounds at indicated concentrations for 15 min. and then incubated with 1 μM of alkyne palmitoyl-5 CoA (Cayman Chemical) for 30 min or 50 mM MES, pH 6.4, followed by Click reaction with biotin-azide as previously described (Zheng, B. et al., J. Am. Chem. Soc., 2013, 135, 7082-7085). Click reaction was performed with 100 μM biotin-azide, 1 mM tris(2-carboxyethyl) phosphine hydrochloride (TCEP), 100 μM tris[(1-benzyl-1H-1,2,3-triazol-4-yl) methyl] amine (TBTA) and 1 mM CuSO4 for 1 h at RT.
The reactions were terminated by the addition of 12 μL of 6×SDS-sample loading buffer (50 mM Tris-HCl, pH 6.8, 6% SDS, 48% Glycerol, 0.03% Bromophenol Blue, 30 mM EDTA, 9% MeSH). Samples were analysed by SDS-PAGE and Western blot was performed by probing with streptavidin HRP and histidine HRP antibodies independently. Bands intensity obtained from streptavidin blot were quantified using BIORAD, Gel doc system and the percentage of inhibition of Tead2 auto palmitoylation is determined by comparing to the DMSO control treated samples.
These compounds were tested for activity in inhibiting TEAD2 palmitoylation in the assay described above.

Chain of TEAD2 (Q15562 whole entry): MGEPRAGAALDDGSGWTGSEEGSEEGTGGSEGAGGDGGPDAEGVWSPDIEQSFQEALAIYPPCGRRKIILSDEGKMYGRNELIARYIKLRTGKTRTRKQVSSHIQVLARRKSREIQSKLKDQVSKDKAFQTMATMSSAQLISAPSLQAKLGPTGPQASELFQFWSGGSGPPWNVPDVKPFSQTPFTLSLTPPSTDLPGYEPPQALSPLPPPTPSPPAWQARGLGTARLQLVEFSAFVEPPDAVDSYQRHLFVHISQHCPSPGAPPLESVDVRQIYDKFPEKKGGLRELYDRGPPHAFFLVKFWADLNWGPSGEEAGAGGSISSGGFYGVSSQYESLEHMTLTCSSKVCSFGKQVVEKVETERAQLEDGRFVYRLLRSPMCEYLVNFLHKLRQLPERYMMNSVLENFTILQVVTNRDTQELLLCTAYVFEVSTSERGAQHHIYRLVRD

Row | SMILES | inhibition at 10 µM (Table 3) [%] | also measured
1 | O=C(Nc1ccc(C23CC4CC(CC(C4)C2)C3)cc1)c1cccnc1Nc1cccc(C(F)(F)F)c1 | – | inhibition at 10 µM: 50%
2 | C=CC(=O)c1ccccc1Nc1ccc(Nc2ccc(C34CC5CC(CC(C5)C3)C4)cc2)cc1 | – | inhibition at 10 µM: 5%
3 | O=C(Nc1ccc(C23CC4CC(CC(C4)C2)C3)cc1)c1ccc2nc[nH]c2c1 | – | inhibition at 10 µM: 5%
4 | O=C(OCC(O)CO)c1ccccc1Nc1ccc(Nc2ccc(C34CC5CC(CC(C5)C3)C4)cc2)cc1 (stereo not shown) | – | inhibition at 10 µM: 80%
5 | O=C(Nc1ccc(C23CC4CC(CC(C4)C2)C3)cc1)Nc1ccc2nc[nH]c2c1 | – | inhibition at 10 µM: 20%
6 | Clc1cc(C23CC4CC(CC(C4)C2)C3)ccc1Nc1ccc(Nc2ccccc2-c2nnn[nH]2)cc1 | – | inhibition at 10 µM: 20%
7 | O=C(Nc1ccc(C23CC4CC(CC(C4)C2)C3)cc1Cl)c1ccc2nc[nH]c2c1 | – | inhibition at 10 µM: 20%
8 | O=C(CN1CCC[C@H]1C(=O)O)Nc1ccc(C23CC4CC(CC(C4)C2)C3)cc1 | – | inhibition at 10 µM: 8%
9 | N#Cc1cc(Nc2ccc(C34CC5CC(CC(C5)C3)C4)cc2)ccc1Nc1ccccc1C(=O)O | – | inhibition at 10 µM: 80%
10 | CC(C)(C)OC(=O)c1ccc(Nc2ccc(Nc3ccccc3C(=O)O)cc2)cc1 | – | inhibition at 10 µM: 100%
11 | CC(C)c1ccccc1-c1ccc(NC(=O)CC2CN(C(=O)OC(C)(C)C)C2)cc1 | – | inhibition at 10 µM: 100%
12 | O=C(Nc1ccc(Nc2ccc(C34CC5CC(CC(C5)C3)C4)cc2Cl)cc1)[C@H]1CCC[C@H]1C(=O)O (stereo in doubt) [compound 288] | – | inhibition at 10 µM (Table 2): 53%
13 | CC(C)COc1ccc(Nc2ccc(N(C)c3ccc(C45CC6CC(CC(C6)C4)C5)cc3)cc2)c(C(=O)O)c1 [CP-453] | – | inhibition at 10 µM (Table 2): 0%
14 | COCCC(=O)Nc1ccc(C(=O)OC)c(Nc2ccc(N(C)c3ccc(C45CC6CC(CC(C6)C4)C5)cc3)cc2)c1 [CP-472] | 1 | –
15 | COCCC(=O)Nc1ccc(C(=O)O)c(Nc2ccc(N(C)c3ccc(C45CC6CC(CC(C6)C4)C5)cc3)cc2)c1 [CP-473] | 50 | –
16 | COc1ccc(Nc2ccc(N(C)c3ccc(C45CC6CC(CC(C6)C4)C5)cc3)cc2)c(CO)c1 [CP-516] | 20 | –
17 | CN(C)CCOc1ccc(Nc2ccc(N(C)c3ccc(C45CC6CC(CC(C6)C4)C5)cc3)cc2)c(C(=O)O)c1 [CP-526] | 23 | –
18 | COc1ccc(Nc2ccc(N(C)c3ccc(Cl)cc3)cc2)c(C(=O)O)c1 [CP-535] | 54 | –
19 | COCCOc1ccc(Nc2ccc(N(C)c3ccc(C4CCCCC4)cc3)cc2)c(C(=O)O)c1 [CP-536] | 84 | –
20 | COc1ccc(Nc2ccc(N(C)c3ccc(C45CC6CC(CC(C6)C4)C5)cc3)cc2F)c(C(=O)O)c1 [CP-537] | 73 | –

Row | SMILES | inhibition at 10 µM (Table 3) [%] | also measured
21 | O=C(O)c1ccccc1Nc1cnc(Oc2ccc(C34CC5CC(CC(C5)C3)C4)cc2Cl)cn1 [CP-540] | 75 | –
22 | CN(c1ccc(Nc2ncccc2C(=O)O)cc1)c1ccc(C(F)(F)F)cc1 [CP-541] | 80 | –
23 | COc1ccc(Nc2ccc(N(C)c3ccc(Cl)cc3Cl)cc2)c(C(=O)O)c1 [CP-542] | 49 | –
24 | O=C(O)c1ccccc1Nc1ccc(Oc2ccc(C(F)(F)F)cc2Cl)cc1 [CP-543] | 98 | –
25 | COc1ccc(Nc2ccc(Oc3ccc(C(F)(F)F)cc3Cl)cc2)c(C(=O)O)c1 [CP-544] | 98 | –
26 | COc1ccc(Nc2ccc(N(C)c3ccccc3OC)cc2)c(C(=O)O)c1 [CP-545] | 6 | –
27 | COc1ccc(Nc2ccc(N(C)c3ccc(N4CCOCC4)cc3)cc2)c(C(=O)O)c1 [CP-547] | 18 | –
28 | COc1ccc(Nc2ccc(N(C)c3ccc(C4CCC(F)(F)CC4)cc3)cc2)c(C(=O)O)c1 [CP-552] | 74 | –
29 | COc1ccc(Nc2ccc(N(C)c3ccc(C4CCC4)cc3)cc2)c(C(=O)O)c1 [CP-556] | 61 | –
30 | COc1ccc(Nc2ccc(N(C)c3ccc(C4=CCC(F)(F)CC4)cc3)cc2)c(C(=O)O)c1 [CP-557] | 34 | –
31 | CN(c1ccc(Nc2ncccc2C(=O)O)cc1)c1ccc(C2CCCCC2)cc1 [CP-558] | 66 | –
32 | O=C(O)c1ccccc1Nc1cnc(Oc2ccc(C3CCCCC3)cc2Cl)cn1 [CP-559] | 79 | –
33 | Cc1cc(Oc2ccc(C34CC5CC(C)(CC(C)(C5)C3)C4)cc2Cl)ccc1Nc1ccccc1C(=O)O [CP-561] | 90 | –
34 | COc1ccc(Nc2ccc(N(C)c3ccc(C(F)(F)F)cc3)cc2C)c(C(=O)O)c1 [CP-563] | 80 | –
35 | COc1ccc(Nc2ccc(Oc3ccc(C45CC6CC(C)(CC(C)(C6)C4)C5)cc3Cl)cc2C)c(C(=O)O)c1 [CP-564] | 89 | –
36 | COc1ccc(Nc2ccc(N(C)c3ccc(CN4CCCCC4)cc3)cc2)c(C(=O)O)c1 [CP-567] | 6 | –
37 | COc1ccc(Nc2ccc(N(C)c3ccc(OCC(F)(F)F)cc3)cc2F)c(C(=O)O)c1 [CP-568] | 46 | –
38 | COc1ccc(Nc2ccc(F)cc2Oc2ccc(C34CC5CC(C)(CC(C)(C5)C3)C4)cc2Cl)c(C(=O)O)c1 [CP-569] | 59 | –
39 | COc1ccc(Nc2ccc(N(C)c3ccc(C(F)(F)F)cc3)cc2F)c(C(=O)O)c1 [CP-572] | 72 | –
40 | COc1ccc(Nc2ccc(N(C)c3ccc(S(F)(F)(F)(F)F)cc3)cc2F)c(C(=O)O)c1 [CP-573] | 74 | –

Row | SMILES | inhibition at 10 µM (Table 3) [%] | also measured
41 | COc1ccc(Nc2ccc(N(C)c3ccc(C4CCC(C)CC4)cc3)cc2)c(C(=O)O)c1 (stereo not shown) [CP-574] | 91 | –
42 | COc1ccc(Nc2ccc(Oc3ccc(C(F)F)cc3Cl)cc2)c(C(=O)O)c1 [CP-575] | 47 | –
43 | COc1ccc(Nc2ccc(N(C)c3ccc(C(F)(F)F)cn3)cc2)c(C(=O)O)c1 [CP-576] | 42 | –
44 | COc1ccc(Nc2ccc(N(C)c3ccc(C4CC5CCC4C5)cc3)cc2C)c(C(=O)O)c1 (stereo not shown) [CP-577] | 79 | –
45 | COc1ccc(Nc2ccc(N(C)c3ccc(C4CCCCC4)nc3)cc2)c(C(=O)O)c1 [CP-578] | 31 | –
46 | Cc1cc(N(C)c2ccc(C3CCCCC3)cc2)ccc1Nc1ccc(C(F)(F)F)cc1C(=O)O [CP-579] | 61 | –
47 | Cc1cc(N(C)c2ccc(C3CCCCC3)cc2)ccc1Nc1ccc(OC(F)(F)F)cc1C(=O)O [CP-580] | 58 | –
48 | COc1ccc(Nc2ccc(N(C)c3ccc(C4CCCCC4)cn3)cc2)c(C(=O)O)c1 [CP-581] | 40 | –
49 | COc1ccc(Nc2ccc(N(C)c3ccc(C4CCN(C)CC4)cc3)cc2)c(C(=O)O)c1 [CP-582] | 0 | –
50 | COc1ccc(Nc2cccc(C(=O)Nc3ccc(C(F)(F)F)cc3)c2)c(C(=O)O)c1 [CP-586] | 40 | –
51 | COc1ccc(Oc2ccc(N(C)c3ccc(C(F)(F)F)cc3)cc2)c(C(=O)O)c1 [CP-587] | 36 | –
52 | COc1ccc(Nc2ccc(N(C)c3nc(C(F)(F)F)cs3)cc2)c(C(=O)O)c1 [CP-588] | 36 | –
53 | COc1ccc(Nc2ccc(Oc3ccc(C4CCCCC4)cc3Cl)nc2)c(C(=O)O)c1 [CP-591] | 88 | –
54 | COc1ccc(Nc2ccc(N(C)c3ccc(C(F)(F)F)cc3)nc2)c(C(=O)O)c1 [CP-592] | 40 | –
55 | COc1ccc(Nc2cnc(N(C)c3ccc(C4CCCCC4)cc3)nc2)c(C(=O)O)c1 [CP-594] | 46 | –
56 | COc1ccc(Nc2ccc(N(C)c3ccc(S(F)(F)(F)(F)F)cc3)nc2)c(C(=O)O)c1 [CP-595] | 51 | –
57 | COc1ccc(Nc2ccc(N(C)c3ccc(OC(F)(F)F)cc3)nc2)c(C(=O)O)c1 [CP-596] | 48 | –
58 | COc1ccc(Nc2ccc(N(C)c3nc(C4CCCCC4)cs3)cc2)c(C(=O)O)c1 [CP-597] | 63 | –

Source: US12187722B2, “Small molecule inhibitors of TEAD transcription factors” (The General Hospital Corporation, priority 2019, dated 2025)
